Patent publication US20240239806A1, “COMPOUNDS, COMPOSITIONS AND METHODS OF TREATING DISORDERS” (Chengdu Anticancer Bioscience, Ltd., priority 2021, published 2024)
Read-outs that look alike come from different tables or passages of the source.

How the values were obtained:
Type in all cases: cell-based
MDA-MB-231 [1] = assay: MTT assay of cellular proliferation; settings: Homo sapiens; MDA-MB-231, MTT, 50% inhibition of cellular proliferation
Experimental: (§1) Six lung cancer cell lines (NCI-H23, NCI-H460, NCI-H596, NCI-H2170, Calu-6 and A549), two colon cancer cell lines (HCT116 and SW460), one breast cancer cell line MDA-MB-231, one gastric cancer cell line NCI-N87, one prostate cancer cell line DU145, one cervical cancer cell line Hela, and one glioblastoma cell line T98G were obtained from ATCC. The T2 HCC cell line was derived from a mouse liver cancer model initiated by a transgene of MYC. All cell lines were cultured in DMEM (Gibco, Cleveland, TN, USA) supplemented with 5% fetal bovine serum (Gibco), penicillin (100 U/mL)—streptomycin (100 μg/mL) (Gibco, Cat. No. 15140-122), 2 mM L-glutamine (Gibco, 200 mM solution, Cat. No. 25030081), and 1 mM sodium pyruvate (Gibco, 100 mM solution, Cat. No. 11360070) at 37° C. in a humidified incubator that was maintained at 5% CO2.
(§2) The MTT assay measures cellular metabolic activity as a proxy for cell viability and involves the conversion of the water-soluble yellow dye MTT [3-(4,5-dimethylthiazol-2-yl)-2,5-diphenyltetrazolium bromide] into an insoluble purple formazan by the action of mitochondrial reductase. Formazan is then solubilized and its concentration is determined by measuring the optical density (OD) value at a wavelength of 570 nm. The value is in proportional to the number of live cells with excellent linearity up to ˜10^6 cells per well. The MTT assay was used to determine the EC50 value, the concentration of a compound that leads to 50% inhibition of cellular proliferation. Briefly, cells were split when growing to the mid-Log phase. Cells in 100 μL of culture medium were seeded into each well of 96-well microplates and cultivated for 15-24 hours to reach a confluence of 20-30% and were then exposed to drugs at concentrations ranging from 1 nM to 30 μM. At the endpoint, 20 μL of a MTT stock solution in DMSO (5 mg/mL) was added to each well that contains 100 μL of DMEM. The microplates were left in the cell culture incubator for 3-4 h before subjected to solubilization and determination of formazan at A570 in a microplate reader (BioTek ELX808iu). […] Therefore, these compounds might hold a broad utility in the treatment of a large variety of human malignancies.

SW480 [2] = assay: MTT assay of cellular proliferation; settings: Homo sapiens, 50% inhibition of cellular proliferation
Experimental: as §1, §2

T2 HCC [3] = assay: MTT assay of cellular proliferation; settings: Mus musculus, 50% inhibition of cellular proliferation
Experimental: as §1, §2

A549 [4] = assay: MTT assay of cellular proliferation; settings: Homo sapiens, 50% inhibition of cellular proliferation
Experimental: as §1, §2

NCI-N87 [5] = assay: MTT assay of cellular proliferation; settings: Homo sapiens, 50% inhibition of cellular proliferation
Experimental: as §1, §2

NCI-H23 [6] = assay: MTT assay of cellular proliferation; settings: Homo sapiens, 50% inhibition of cellular proliferation
Experimental: as §1, §2

HCT116 [7] = assay: MTT assay of cellular proliferation; settings: Homo sapiens, HCT-116, 50% inhibition of cellular proliferation
Experimental: as §1, §2

Hela [8] = assay: MTT assay of cellular proliferation; settings: Homo sapiens, 50% inhibition of cellular proliferation
Experimental: as §1, §2

NCI-N87 [9] = assay: MECP in cancer cell line; settings: Homo sapiens
Experimental: as §1, with “CO2. […]” for “CO2.”

NCI-H23 [10] = assay: MECP in cancer cell line; settings: Homo sapiens
Experimental: as §1, with “CO2. […]” for “CO2.”

MDA-MB-231 [11] = assay: MECP in cancer cell line; settings: Homo sapiens
Experimental: as §1
(§3) We have previously developed a mechanism-informed phenotypic screening assay to identify novel antimitotic agents. Equipped with a prior understanding of the versatile functions of the chromosomal passenger protein (CPP) complex in orchestrating karyokinesis and cytokinesis, the screening assay is to score for phenotypes typically seen when the CPP complex is disabled. Specifically, the parameters for a positive hit are a temporary elevation of mitotic index (MI) at 24 hours of drug treatment and an accumulation of polyploid cells at 48 hours of drug treatment, indicative of mitotic arrest and cytokinetic failure respectively. These parameters exclude compounds that elicit only a prolonged arrest of cells in mitosis, a phenotype typically provoked by spindle toxins. The screening procedure is briefly summarized here. RPEMYC^H2B-GFP cells engineered to express a Histone 2B-EGFP fusion protein were passaged as batches of 96-well plates, 18-24 hours before exposure to the chemical compounds of the present disclosure at concentrations from 1 nM to 30 μM. At 24, 48 or 72 hours after initiation of treatment, cells were analyzed for either an arrest in mitosis or a change in DNA content by GE IN-Cell Analyzer 2000. As set forth in Table 2 below, a value of greater than or equal to 1 nM and less than or equal to 1.0 μM is marked “A”; a value greater than 1.00 μM and less than or equal to 10.0 μM is marked “B”; a value greater than 10.0 μM and less than or equal to 30.0 μM is marked “C”; and a value greater than 30.0 μM is marked “D.”

SW480 [12] = assay: MECP in cancer cell line; settings: Homo sapiens
Experimental: as §1, §3

T2 HCC [13] = assay: MECP in cancer cell line; settings: Mus musculus
Experimental: as §1, §3

A549 [14] = assay: MECP in cancer cell line; settings: Homo sapiens
Experimental: as §1, §3

HCT116 [15] = assay: MECP in cancer cell line; settings: Homo sapiens, HCT-116
Experimental: as §1, §3

Hela [16] = assay: MECP in cancer cell line; settings: Homo sapiens
Experimental: as §1, §3

RPEMYC^H2B-GFP cells = assay: Phenotypic screening assay (mitotic arrest, polyploidy); settings: 1 nM to 30 μM; for IC50: read-out: Proliferative arrest (>50%)
Method in brief: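 RPE cells expressing MYC and H2B-EGFP treated with compound at 1 nM–30 μM; mitotic index scored at 24 h and polyploidy (DNA content) at 48 h by automated imaging, with reads at 24, 48 or 72 h. Hits show transient mitotic arrest followed by polyploid accumulation.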

[17] = read-out: Min. Effective conc. for Polyploidy (≥5%)

Row | SMILES | EC50 (MDA-MB-231 [1]) | EC50 (SW480 [2]) | EC50 (T2 HCC [3]) | EC50 (A549 [4]) | EC50 (NCI-N87 [5]) | EC50 (NCI-H23 [6]) | EC50 (HCT116 [7]) | EC50 (Hela [8]) | minimal effective concentration (NCI-N87 [9]) | minimal effective concentration (NCI-H23 [10]) | minimal effective concentration (MDA-MB-231 [11]) | minimal effective concentration (SW480 [12]) | minimal effective concentration (T2 HCC [13]) | minimal effective concentration (A549 [14]) | minimal effective concentration (HCT116 [15]) | minimal effective concentration (Hela [16]) | minimal effective concentration (RPEMYC^H2B-GFP cells; [17]) | minimal effective concentration (RPEMYC^H2B-GFP cells; read-out: Mitotic Arrest (≥5%)) | IC50 (RPEMYC^H2B-GFP cells)
1 | COc1cc(Oc2ccnc3ccc(F)cc23)cc(-n2cccn2)c1 [Compound 19, 6-fluoro-4-(3-methoxy-5-(1H-pyrazol-1-yl)phenoxy)quinoline] | 0.001 to 1 µM | 1 to 10 µM | 0.001 to 1 µM | 0.001 to 1 µM | 0.001 to 1 µM | 0.001 to 1 µM | 0.001 to 1 µM | 0.001 to 1 µM | 0.001 to 1 µM | 0.001 to 1 µM | 0.001 to 1 µM | 0.001 to 1 µM | 0.001 to 1 µM | 0.001 to 1 µM | 0.001 to 1 µM | 0.001 to 1 µM | 0.001 to 1 µM | 0.001 to 1 µM | 0.001 to 1 µM
2 | COc1cc(NC(C)=O)cc(Oc2ccnc3ccc(F)cc23)c1 [Compound 20, N-(3-((6-fluoroquinolin-4-yl)oxy)-5-methoxyphenyl)acetamide] | 0.001 to 1 µM | 0.001 to 1 µM | 0.001 to 1 µM | 0.001 to 1 µM | 0.001 to 1 µM | 0.001 to 1 µM | 0.001 to 1 µM | 0.001 to 1 µM | 0.001 to 1 µM | 0.001 to 1 µM | 0.001 to 1 µM | 0.001 to 1 µM | 0.001 to 1 µM | 0.001 to 1 µM | 0.001 to 1 µM | 0.001 to 1 µM | 0.001 to 1 µM | 0.001 to 1 µM | 0.001 to 1 µM
3 | COc1cc(NC(C)=O)cc(Oc2ccnc3ccc(Br)cc23)c1 [Compound 22, N-(3-((6-bromoquinolin-4-yl)oxy)-5-methoxyphenyl)acetamide] | 0.001 to 1 µM | 0.001 to 1 µM | 0.001 to 1 µM | 0.001 to 1 µM | 0.001 to 1 µM | 0.001 to 1 µM | 0.001 to 1 µM | 0.001 to 1 µM | 0.001 to 1 µM | 0.001 to 1 µM | 0.001 to 1 µM | 0.001 to 1 µM | 0.001 to 1 µM | 0.001 to 1 µM | 0.001 to 1 µM | 0.001 to 1 µM | 0.001 to 1 µM | 0.001 to 1 µM | 0.001 to 1 µM
